Laboratory results: patent publication US9957274B2, “Indane inhibitors of EED and methods of their use” (AbbVie Inc., priority 2016, dated 2018)

Key:
EED = EED (Homo sapiens, UniProt O75530); experiment: EED TR-FRET Binding Assay (modified LanthaScreen competition assay)
Method: Compounds were tested in a modified LanthaScreen competition assay.
The following buffer was used to set up the binding reactions: 20 mM Tris-HCl pH 7.5, 200 mM NaCl, 0.01% Tween-20, 10 uM DTT (dithiothreitol), and 0.05% BSA (bovine serum albumin), with the DTT and BSA added fresh prior to initiating the binding assay. […] The reactions were then incubated for 1 hour at 25° C. in a humidified chamber prior to detection on the Perkin Elmer Envision plate reader using a Lanthascreen TR-FRET protocol.

Pfeiffer cells = experiment: CTG cell viability assay (CellTiter-Glo); assay type: cell-based; conditions: Homo sapiens, 240 h; Pfeiffer cells, 10 days with compound, CellTiter-Glo; read-out: Cell Proliferation IC50
Method: 1,000 cells were plated into each well of 96-well Corning CellBing cell culture plates and incubated overnight at 37° C. in a humidified CO2 incubator. […] The cell culture plates were then incubated for 10 more days. CTG cell viability assay was performed on the cell culture samples by using CellTiter-Glo® Luminescent Cell Viability Assay Kit (Promega).

Sequence of EED (O75530 whole entry): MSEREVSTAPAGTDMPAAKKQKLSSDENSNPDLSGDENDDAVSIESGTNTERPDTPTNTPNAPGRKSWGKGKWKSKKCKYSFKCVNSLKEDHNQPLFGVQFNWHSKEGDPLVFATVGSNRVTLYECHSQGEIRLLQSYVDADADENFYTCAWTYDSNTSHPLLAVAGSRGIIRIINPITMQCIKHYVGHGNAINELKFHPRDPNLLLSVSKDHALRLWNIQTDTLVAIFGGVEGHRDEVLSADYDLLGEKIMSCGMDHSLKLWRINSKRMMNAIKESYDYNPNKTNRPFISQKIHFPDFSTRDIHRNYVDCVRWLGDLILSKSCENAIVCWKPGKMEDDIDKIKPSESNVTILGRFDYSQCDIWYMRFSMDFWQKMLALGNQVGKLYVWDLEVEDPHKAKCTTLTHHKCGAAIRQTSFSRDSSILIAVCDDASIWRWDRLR

SMILES	IC50 (EED)	IC50 (Pfeiffer cells)
CN(C)[C@H]1CN(C2CCc3cccc(F)c32)C[C@@H]1c1cn(C)c2c(C(=O)N3CCC[C@H]3CO)cccc12 (mixture of isomers) [Example 116, rac-{3-[(3S,4R)-4-(dimethylamino)-1-(7-fluoro-2,3-dihydro-1H-inden-1-yl)pyrrolidin-3-yl]-1-methyl-1H-indol-7-yl}[(2S)-2-(hydroxymethyl)pyrrolidin-1-yl]methanone]	0.00177 µM	0.0996 µM
CC(=O)N1CCN(c2ccc([C@H]3CN(C4CCc5cccc(F)c54)C[C@@H]3N(C)C)cc2C)CC1 (mixture of isomers) [Example 60, rac-1-(4-{4-[(3S,4R)-4-(dimethylamino)-1-(7-fluoro-2,3-dihydro-1H-inden-1-yl)pyrrolidin-3-yl]-2-methylphenyl}piperazin-1-yl)ethan-1-one]	0.00662 µM	0.302 µM
CN(CCO)C(=O)c1cccc2c([C@H]3CN(C4CCc5cccc(F)c54)C[C@@H]3N(C)C)cn(C)c12 (mixture of isomers) [Example 98, rac-3-[(3S,4R)-4-(dimethylamino)-1-(7-fluoro-2,3-dihydro-1H-inden-1-yl)pyrrolidin-3-yl]-N-(2-hydroxyethyl)-N,1-dimethyl-1H-indole-7-carboxamide]	0.00137 µM	0.126 µM
CN(C)[C@H]1CN([C@H]2C[C@H](O)c3cccc(F)c32)C[C@@H]1c1ccc(S(C)(=O)=O)cc1 (mixture of isomers) [Example 18, rac-(1S,3S)-3-{(3R,4S)-3-(dimethylamino)-4-[4-(methanesulfonyl)phenyl]pyrrolidin-1-yl}-4-fluoro-2,3-dihydro-1H-inden-1-ol]	0.0162 µM	
COC(=O)c1cccc2c([C@H]3CN(C4CCc5cccc(F)c54)C[C@@H]3N(C)C)cn(C)c12 (mixture of isomers) [Example 85, rac-methyl 3-[(3S,4R)-4-(dimethylamino)-1-(7-fluoro-2,3-dihydro-1H-inden-1-yl)pyrrolidin-3-yl]-1-methyl-1H-indole-7-carboxylate]	0.000561 µM	
CN(C)[C@H]1CN(C2CCc3ccc(F)c(F)c32)C[C@@H]1c1cn(C)c2ccccc12 (stereo partly drawn) [Example 96, (3R,4S)-1-(6,7-difluoro-2,3-dihydro-1H-inden-1-yl)-N,N-dimethyl-4-(1-methyl-1H-indol-3-yl)pyrrolidin-3-amine]	0.00426 µM	
CN(C)[C@H]1CN(C2CCc3cccc(F)c32)C[C@@H]1C1CCOCC1 (mixture of isomers) [Example 144, rac-(3R,4S)-1-(7-fluoro-2,3-dihydro-1H-inden-1-yl)-N,N-dimethyl-4-(oxan-4-yl)pyrrolidin-3-amine]	0.0121 µM	
CN(C)[C@@H]1CN([C@H]2CCc3ccccc32)C[C@H]1c1ccc(S(C)(=O)=O)cc1 [Example 10, (3S,4R)-1-[(1S)-2,3-dihydro-1H-inden-1-yl]-4-[4-(methanesulfonyl)phenyl]-N,N-dimethylpyrrolidin-3-amine]	0.29 µM	
CN(C)[C@H]1CN([C@@H]2CCc3cccc(F)c32)C[C@@H]1C1COc2ccccc21 (mixture of isomers) [Example 142, rac-(3R,4S)-4-(2,3-dihydro-1-benzofuran-3-yl)-1-[(1R)-7-fluoro-2,3-dihydro-1H-inden-1-yl]-N,N-dimethylpyrrolidin-3-amine]	0.026 µM	
Cc1cccc2c1C(N1C[C@H](c3cn(C)c4ccccc34)[C@@H](N(C)C)C1)CC2 (stereo partly drawn) [Example 100, (3R,4S)-N,N-dimethyl-1-(7-methyl-2,3-dihydro-1H-inden-1-yl)-4-(1-methyl-1H-indol-3-yl)pyrrolidin-3-amine]	0.0584 µM	
CN(C)[C@@H]1CN(C2CCc3cccc(F)c32)C[C@H]1c1cn(C)c2c(C(=O)O)cccc12 (stereo partly drawn) [Example 81, 3-[(3R,4S)-4-(dimethylamino)-1-(7-fluoro-2,3-dihydro-1H-inden-1-yl)pyrrolidin-3-yl]-1-methyl-1H-indole-7-carboxylic acid]	0.0982 µM	
CCS(=O)(=O)N1CCN(C(=O)c2ccc([C@H]3CN(C4CCc5cccc(F)c54)C[C@@H]3N(C)C)cc2)CC1 (mixture of isomers) [Example 57, rac-{4-[(3S,4R)-4-(dimethylamino)-1-(7-fluoro-2,3-dihydro-1H-inden-1-yl)pyrrolidin-3-yl]phenyl}[4-(ethanesulfonyl)piperazin-1-yl]methanone]	0.0123 µM	
CN(C)[C@H]1CN(C2CCc3cc(F)ccc32)C[C@@H]1c1cn(C)c2ccccc12 (mixture of isomers) [Example 91, rac-(3R,4S)-1-(5-fluoro-2,3-dihydro-1H-inden-1-yl)-N,N-dimethyl-4-(1-methyl-1H-indol-3-yl)pyrrolidin-3-amine]	0.0307 µM	
CN(C)[C@H]1CN([C@H]2C[C@@H](O)c3cccc(F)c32)C[C@@H]1c1ccc(S(C)(=O)=O)cc1 (mixture of isomers) [Example 34, rac-(1R,3S)-3-{(3R,4S)-3-(dimethylamino)-4-[4-(methanesulfonyl)phenyl]pyrrolidin-1-yl}-4-fluoro-2,3-dihydro-1H-inden-1-ol]	0.104 µM	

Further lines, with some results ahead:

IC50 (EED)	SMILES	IC50 (Pfeiffer cells)
0.00268 µM	CN(C)[C@@H]1CN(C2CCc3cccc(F)c32)C[C@H]1c1ccc(-c2ncco2)cc1 (mixture of isomers) [Example 66, rac-(3S,4R)-1-(7-fluoro-2,3-dihydro-1H-inden-1-yl)-N,N-dimethyl-4-[4-(1,3-oxazol-2-yl)phenyl]pyrrolidin-3-amine]	1.13 µM
0.00237 µM	Cc1nnc(-c2ccc([C@@H]3CN(C4CCc5cccc(F)c54)C[C@H]3N(C)C)cc2)o1 (mixture of isomers) [Example 68, rac-(3S,4R)-1-(7-fluoro-2,3-dihydro-1H-inden-1-yl)-N,N-dimethyl-4-[4-(5-methyl-1,3,4-oxadiazol-2-yl)phenyl]pyrrolidin-3-amine]	0.491 µM
0.0052 µM	CN(C)[C@@H]1CN(C2CCc3cccc(F)c32)C[C@H]1c1ccc(N2CCNCC2)nc1 (mixture of isomers) [Example 145, rac-(3S,4R)-1-(7-fluoro-2,3-dihydro-1H-inden-1-yl)-N,N-dimethyl-4-[6-(piperazin-1-yl)pyridin-3-yl]pyrrolidin-3-amine]	
0.0835 µM	CN(C)[C@@H]1CN([C@@H]2CCc3cccc(F)c32)C[C@H]1C1COc2ccccc21 (mixture of isomers) [Example 139, rac-(3S,4R)-4-(2,3-dihydro-1-benzofuran-3-yl)-1-[(1R)-7-fluoro-2,3-dihydro-1H-inden-1-yl]-N,N-dimethylpyrrolidin-3-amine]	
0.00107 µM	COC(=O)c1ccc([C@H]2CN(C3CCc4cccc(F)c43)C[C@@H]2N(C)C)cc1C (mixture of isomers) [Example 39, rac-methyl 4-[(3S,4R)-4-(dimethylamino)-1-(7-fluoro-2,3-dihydro-1H-inden-1-yl)pyrrolidin-3-yl]-2-methylbenzoate]	
0.489 µM	CN(C)[C@H]1CN(C2CCc3cccc(Cl)c32)C[C@@H]1c1ccc(C(=O)O)cc1 (mixture of isomers) [Example 28, rac-4-[(3S,4R)-1-(7-chloro-2,3-dihydro-1H-inden-1-yl)-4-(dimethylamino)pyrrolidin-3-yl]benzoic acid]	
0.0468 µM	CN(C)[C@H]1CN(C2CCc3cccc(F)c32)C[C@@H]1c1cn(C)c2ccncc12 (mixture of isomers) [Example 141, rac-(3R,4S)-1-(7-fluoro-2,3-dihydro-1H-inden-1-yl)-N,N-dimethyl-4-(1-methyl-1H-pyrrolo[3,2-c]pyridin-3-yl)pyrrolidin-3-amine]	
